Assay results taken from article PMC9293909 (Nature Communications, 2022).
Several values for one entry are separate records, joined by “and”; a condition that tells them apart may be missing. Identical values can stand only once.

Test system: motor coordination
Description: On the day of the experiment, three baseline trials were recorded. The compound was administered IP (10 µg kg^−1, n = 6) or IV via tail vein injection (10 and 25 µg kg^−1, n = 6 per group). The control group received subcutaneous saline and the positive control group received subcutaneous morphine (15 mg kg^−1). Latency to fall (seconds) was measured in triplicate at 1, 2, 3 and 5 h post drug administration.

For `CN1CC[C@]23c4c5ccc(O)c4O[C@H]2[C@@H](O)C=C[C@H]3[C@H]1C5` [morphine], the “Seconds on rota, 1h avg” value (Morphine, 1h post inj, avg of 3 trials per animal) was 12.0 s and 6.0 s and 5.0 s and 6.3 s and 10.7 s and 10.3 s, the 1h avg/ baseline (Morphine, 1h post inj, per animal) was 0.218 and 0.137 and 0.1 and 0.2 and 0.164 and 0.0833 and the “Seconds on rota, 1h” value (Morphine, 1h post inj, single trials, individual animals) was 5 s and 14 s and 17 s and 9 s and 4 s and 2 s and 10 s and 8 s and 1 s and 12 s. For the same molecule, the “average of avg/baseline, 1hr post inj” value (Morphine, 1hr, group average) was 0.150, the “Seconds on rota, 2h avg” value (Morphine, 2h post inj, avg of 3 trials per animal) was 34.0 s and 19.7 s and 12.3 s and 6.7 s and 21.7 s and 31.0 s and the 2h avg/ baseline (Morphine, 2h post inj, per animal) was 0.6 and 0.45 and 0.259 and 0.2 and 0.333 and 0.25. For the same molecule, the “Seconds on rota, 2h” value (Morphine, 2h post inj, single trials, individual animals) was 30 Seconds and 27 Seconds and 45 Seconds and 7 Seconds and 18 Seconds and 34 Seconds and 2 Seconds and 17 Seconds and 8 Seconds and 6 Seconds (2×) and 24 Seconds and 22 Seconds and 19 Seconds and 26 Seconds, the “average of avg/baseline, 2hr post inj” value (Morphine, 2hr, group average) was 0.352 and the “Seconds on rota, 3h avg” value (Morphine, 3h post inj, avg of 3 trials per animal) was 46.3 s and 37.7 s and 34.0 s and 18.7 s and 55.0 s. For the same molecule, the 3h avg/ baseline (Morphine, 3h post inj, per animal) was 0.842 and 0.9 and 0.7 and 0.566 and 0.444, the “Seconds on rota, 3h” value (Morphine, 3h post inj, single trials, individual animals) was 39 s and 41 s and 59 s and 27 s and 29 s and 57 s and 21 s and 54 s and 11 s and 23 s and 22 s and 26 s and 65 s and the “average of avg/baseline, 3hr post inj” value (Morphine, 3hr, group average) was 0.690. For the same molecule, the “Seconds on rota, 5h avg” value (Morphine, 5h post inj, avg of 3 trials per animal) was 48.7 s and 52.3 s and 48.0 s and 81.7 s and 84.3 s, the 5h avg/ baseline (Morphine, 5h post inj, per animal) was 0.9 and 1.1 and 1.5 and 1.3 and 0.7 and the “Seconds on rota, 5h” value (Morphine, 5h post inj, single trials, individual animals) was 24 s and 57 s and 65 s and 31 s and 60 s and 55 s and 19 s and 73 s and 38 s and 51 s and 67 s and 81 s and 97 s and 88 s and 100 s. The “average of avg/baseline, 5hr post inj” value (Morphine, 5hr, group average) was 1.081 and the rotarod performance (morphine 15 mg kg^−1 SC) was “caused sedation and motor impairment”.
